Where “and” joins values, the source holds several entries; their conditions need not be identical. Equal values may be shown once. Read-outs that look alike come from different tables or passages of the source.
Key:
COX-1 = settings: Figure 1; cited from earlier work
5-LOX = settings: Figure 1; cited from earlier work
paw edema = settings: Figure 1; cited from earlier work
[1] = Inhibition of linoleic acid lipid peroxidation (AAPH); settings: 37 °C, ± SD
Excerpt: It is widely known that oxidative stress can induce lipid peroxidation. One of the major end products of the latter process are lipid-derived aldehydes, such as malondialdehyde (MDA), which is more chemically stable and membrane-permeable than ROS. These lipid aldehydes can participate in cross-linking with DNA and proteins and subsequently facilitate the development of various pathological states. Herein, we used the water-soluble 2,2′-azobis(2-methylpropionamidine) dihydrochloride (AAPH) as a free radical initiator for the in vitro antioxidant assay due to its ability to generate alkylperoxy radicals in the presence of oxygen molecules at 37 °C [53]. […] Pyrroles 1 and 2 with high lipophilicity (ClogP of 1 = 5.7, ClogP of 2 = 5.05; RM of 1 = 0.3076, RM of 2 = 0.0116) and molecular volume (MV of 1 = 318, MV of 2 = 290) values appeared to be weak antioxidants (34% and 33% at 100 μM, respectively). […] The presence of a bulkier substituent Ar^2 decreased the anti-lipid peroxidation activity of 5 (36% at 100 μM) compared to 8 (58% at 100 μM).
In vitro enzymatic assay was conducted as reported in previous studies. 2,2′-Azobis(2-methylpropionamidine) dihydrochloride (AAPH) was used as a controllable source of thermally produced alkylperoxy free radicals. The production of conjugated diene hydroperoxides via the oxidation of sodium linoleate in an aqueous dispersion at 37 °C was monitored at 234 nm. The results were compared to the reference compound, trolox (93%) (Table 2).

[2] = Experimental lipophilicity as RM values by reversed-phase TLC; format: physicochemical; settings: RPTLC, methanol/water 70/30 v/v, five measurements
Excerpt: Lipophilicity is one of the most studied physicochemical properties in the drug discovery process and is frequently employed in structure–activity relationship (SAR) studies. It contributes to the ADMET (absorption, distribution, metabolism, excretion, toxicity) properties, solubility, permeability to the potency and efficacy of drugs. […] In TLC, the retention parameter, RF, is defined as the ratio between the migration distances of the compound and of the mobile phase, both measured from the sample application position. The term RM was introduced to facilitate a linear relationship with the log P values, and it is defined as similar to the capacity factor, k, in HPLC.
Reversed-phase thin-layer chromatography (RPTLC) was used for the determination of RM values. Silica gel plates were saturated with 5% v/v liquid paraffin in petroleum ether. The mobile phase consisted of a methanol/water mixture (70/30, v/v). The plates were developed in closed chromatography tanks saturated with the mobile phase. Spots were detected under UV light or after exposure to iodine vapor. RM values were calculated from the corresponding Rf values (from five individual measurements) using […]. RM = log[(1/Rf) − 1], (2) where Rf is obtained by dividing the distance covered by the sample by the distance covered by the mobile phase.

ovine COX-2 [3] = molecular target: T1, ovine COX-2 (Ovis aries, UniProt P79208); experiment: Inhibition of ovine cyclooxygenase-2 (TMPD co-substrate); settings: for inhibition at 100 µM: read-out: COX-2 Inh. % at 100 μM, 100 μM, ovine COX-2
T1 sequence (P79208 17-603): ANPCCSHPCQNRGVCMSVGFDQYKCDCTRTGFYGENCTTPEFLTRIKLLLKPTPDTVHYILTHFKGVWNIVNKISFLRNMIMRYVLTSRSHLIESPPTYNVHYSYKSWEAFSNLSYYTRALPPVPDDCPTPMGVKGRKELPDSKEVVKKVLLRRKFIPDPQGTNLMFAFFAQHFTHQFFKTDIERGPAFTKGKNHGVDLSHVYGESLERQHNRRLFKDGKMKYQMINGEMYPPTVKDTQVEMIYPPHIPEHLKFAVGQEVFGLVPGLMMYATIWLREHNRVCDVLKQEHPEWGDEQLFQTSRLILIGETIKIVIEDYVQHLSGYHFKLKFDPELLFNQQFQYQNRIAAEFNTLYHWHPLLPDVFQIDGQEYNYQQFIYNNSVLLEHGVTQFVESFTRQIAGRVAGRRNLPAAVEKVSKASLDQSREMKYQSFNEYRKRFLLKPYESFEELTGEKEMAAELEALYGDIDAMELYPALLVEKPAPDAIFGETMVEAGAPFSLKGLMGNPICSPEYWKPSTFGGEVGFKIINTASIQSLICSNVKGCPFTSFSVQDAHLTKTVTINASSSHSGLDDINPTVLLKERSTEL
Protocol: The oxidized TMPD has an absorbance maximum at 590 nm. COXs require heme (Fe^3+-protoporphyrin IX) as a cofactor which may dissociate from the protein during its purification. Therefore, in the in vitro enzymatic assay of ovine COX-2 inhibition, heme is added to ensure maximal enzyme activity [54]. […] The in vitro COX-2 inhibitory activity was determined using arachidonic acid (AA) as a substrate and N,N,N′,N′-tetramethyl-p-phenylenediamine (TMPD) as a co-substrate in a buffer solution of Tris:HCl (pH 8.5) [27]. Ten microliters of the DMSO solution of the compound of interest were added in a test tube containing 730 μL of buffer Tris:HCl (pH 8.5), 50 μL of heme, 10 μL of COX-2 and 100 μL of TMPD. […] A blank determination was used first to serve as a negative control.

[4] = molecular target: T2, soybean lipoxygenase isoenzyme-1 (SLOX-1) (Glycine max, UniProt P08170); experiment: Inhibition of soybean lipoxygenase in vitro; format: biochemical; settings: soybean LOX; for IC50: pH 9.00, ± SD, read-out: LOX Inh. IC50
T2 construct: purchased Sigma Chemical, Co. (St. Louis, MO, USA)
T2 sequence (P08170 1-839): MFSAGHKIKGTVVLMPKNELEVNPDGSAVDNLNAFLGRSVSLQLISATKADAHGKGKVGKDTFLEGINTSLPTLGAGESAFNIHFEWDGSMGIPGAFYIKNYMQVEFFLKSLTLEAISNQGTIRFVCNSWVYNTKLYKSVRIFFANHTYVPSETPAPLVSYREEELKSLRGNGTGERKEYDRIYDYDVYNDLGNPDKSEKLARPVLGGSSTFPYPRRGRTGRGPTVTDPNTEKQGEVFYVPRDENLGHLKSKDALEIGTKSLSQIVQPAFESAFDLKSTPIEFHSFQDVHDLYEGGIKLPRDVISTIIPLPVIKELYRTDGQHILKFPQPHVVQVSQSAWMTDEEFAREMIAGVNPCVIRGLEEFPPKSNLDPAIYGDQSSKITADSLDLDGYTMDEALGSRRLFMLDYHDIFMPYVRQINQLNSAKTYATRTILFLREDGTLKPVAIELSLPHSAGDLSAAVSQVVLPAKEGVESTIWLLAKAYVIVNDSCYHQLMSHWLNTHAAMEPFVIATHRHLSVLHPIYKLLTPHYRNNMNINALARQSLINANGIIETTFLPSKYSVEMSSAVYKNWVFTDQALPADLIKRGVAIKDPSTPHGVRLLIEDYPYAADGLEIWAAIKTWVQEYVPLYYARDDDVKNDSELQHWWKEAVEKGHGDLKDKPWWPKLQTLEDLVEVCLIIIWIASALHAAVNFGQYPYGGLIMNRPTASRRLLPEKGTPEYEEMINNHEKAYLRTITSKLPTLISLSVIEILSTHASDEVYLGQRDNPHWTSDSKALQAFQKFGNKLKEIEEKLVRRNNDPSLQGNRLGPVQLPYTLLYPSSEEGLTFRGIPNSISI
Protocol: In vitro anti-LOX activities were measured against soybean lipoxygenase isoenzyme-1 (SLOX-1), which is widely used as a model for mammalian LOXs.
An in vitro study was conducted as reported previously. The tested compounds were dissolved in DMSO (100 µM) and incubated at room temperature with sodium linoleate (0.1 mL) as a substrate and 0.2 mL of a soybean lipoxygenase solution in a buffer solution of Tris:HCl (pH 9.00).

[5] = cited from earlier work
COX-2 = settings: Figure 1; cited from earlier work
ovine COX-2 [6] = molecular target: T1, ovine COX-2; design: purchased Cayman; settings: read-out: COX-2 Inh. IC50; cited from earlier work
[7] = design: method as in doi:10.3390/M1314; settings: RPTLC; cited from earlier work
[8] = design: method as in doi:10.3390/M1314; settings: Molinspiration software; cited from earlier work
[9] = molecular target: T2, soybean lipoxygenase isoenzyme-1 (SLOX-1); settings: soybean LOX; read-out: LOX Inh. IC50; cited from earlier work

## COc1ccc(/C=C2\SC(=S)N(NC(=O)c3sc4ccccc4c3Cl)C2=O)cc1OC [II]
COX-1
  IC50: 3.4 µM
5-LOX
  IC50: 2.33 µM
Paw edema
  % paw edema reduction (in vivo): 93.26%

## Cc1c(C)c2c(c(C)c1O)CCC(C)(C(=O)O)O2 (centres unmarked) [Trolox, reference compound]
[1]
  ILP % at 100 μM (inhibition of lipid peroxidation): 93 ± 2.5%

## CN(C)c1ccc(-c2cn(C(=O)/C=C/c3ccccc3)cc2C(=O)c2ccc(Cl)cc2)cc1 [compound 6, (E)-1-(3-(4-chlorobenzoyl)-4-(4-(dimethylamino)phenyl)-1H-pyrrol-1-yl)-3-phenylprop-2-en-1-one]
[2]
  RM: −0.4771
Ovine COX-2 [3]
  IC50: 7 ± 0.6 µM
[1]; 100 µM
  ILP % at 100 μM (inhibition of lipid peroxidation): 62% and 61.6 ± 2.3%
[4]
  IC50: 27.5 ± 1.3 µM

## O=C(O)/C=C/c1ccccc1 [Cinnamic acid, reference compound]
[5]
  ILP % at 100 μM (inhibition of lipid peroxidation): 78 ± 3.2%

## Cc1ccc(C(C)C)c(O)c1/C=N/NC(=O)c1cc(-c2ccccc2)n[nH]1 [IV]
COX-1
  IC50: 10.3 ± 0.1 µM
5-LOX
  IC50: 3.05 ± 0.067 µM
Paw edema
  % paw edema reduction (in vivo): 81.93%
COX-2
  IC50: 0.068 ± 0.01 µM

## CN(C)c1ccc(-c2cn(C(=O)/C=C/c3ccccc3)cc2C(=O)c2cccs2)cc1 [compound 7, (E)-1-(3-(4-(dimethylamino)phenyl)-4-(thiophene-2-carbonyl)-1H-pyrrol-1-yl)-3-phenylprop-2-en-1-one]
Ovine COX-2 [3]
  IC50: 7.2 ± 0.3 µM
[1]; 100 µM
  ILP % at 100 μM (inhibition of lipid peroxidation): 31% and 31.1 ± 1.1%
[4]
  IC50: 35 ± 1.6 µM

## CN(C)c1ccc(/C=C/c2cn(C(=O)/C=C/c3ccccc3)cc2C(=O)c2ccccc2)cc1 [compound 5, (E)-1-(3-benzoyl-4-((E)-4-(dimethylamino)styryl)-1H-pyrrol-1-yl)-3-phenylprop-2-en-1-one]
[2]
  RM: −0.4174
Ovine COX-2 [3]
  IC50: 0.55 ± 0.3 µM
[1]; 100 µM
  ILP % at 100 μM (inhibition of lipid peroxidation): 36% and 36.4 ± 0.4%
[4]
  IC50: 30 ± 1.6 µM

## CN(C)c1ccc(-c2c[nH]cc2C(=O)c2cccs2)cc1 [compound 3, (4-(4-(dimethylamino)phenyl)-1H-pyrrol-3-yl) (thiophen-2-yl) methanone]
[2]
  RM: −0.3340
Ovine COX-2 [3]
  inhibition at 100 µM: 12%
[1]
  ILP % at 100 μM (inhibition of lipid peroxidation): inactive
[1]; 100 µM
  ILP % at 100 μM (inhibition of lipid peroxidation): no action at all and no
[4]; pH 9, 100 μM, pH 9.00, read-out: LOX Inh. % at 100 μM
  inhibition at 100 µM: 43%

## CN(C)c1ccc(/C=C/c2c[nH]cc2C(=O)c2ccc(Cl)cc2)cc1 [compound 1, (E)-(4-chlorophenyl) (4-(4-(dimethylamino)styryl)-1H-pyrrol-3-yl)methanone]
[2]
  RM: 0.3076
Ovine COX-2 [3]
  IC50: 10 ± 0.8 µM
[1]; 100 µM
  ILP % at 100 μM (inhibition of lipid peroxidation): 34% and 33.8 ± 1.3%
[4]
  IC50: 51.5 ± 1.7 µM

## COc1cc(/C=c2\c(=O)[nH]n3c(=O)c4ccccc4nc23)cc(OC)c1OC [I]
COX-1
  IC50: 0.668 ± 0.0212 µM
5-LOX
  IC50: 2.3 ± 0.13 µM
COX-2
  IC50: 0.047 ± 0.0027 µM

## CN(C)c1ccc(-c2c[nH]cc2C(=O)c2ccc(Cl)cc2)cc1 [compound 2, (4-chlorophenyl) (4-(4-(dimethylamino)phenyl)-1H-pyrrol-3-yl) methanone]
[2]
  RM: 0.0116
Ovine COX-2 [3]
  inhibition at 100 µM: 17%
[1]; 100 µM
  ILP % at 100 μM (inhibition of lipid peroxidation): 33% and 32.8 ± 0.8%
[4]
  IC50: 7.5 ± 0.5 µM

## O=C(c1ccccc1)c1cn(C(=O)/C=C/c2ccccc2)cc1-c1ccccc1 [compound 8, (E)-1-(3-Benzoyl-4-Phenyl-1H-Pyrrol-1-Yl)-3-Phenylprop-2-En-1-One]
Ovine COX-2 [6]
  IC50: 6 ± 0.1 µM
[7]
  RM: −0.4771
[8]
  miLogP: 6.26
[9]
  IC50: 39 ± 2.3 µM
[5]; 100 µM
  ILP % at 100 μM (inhibition of lipid peroxidation): 58% and 58.1 ± 1.8%

## O=C(c1ccccc1)c1c[nH]cc1-c1ccccc1 [compound 4]
Ovine COX-2 [6]
  IC50: 0.65 ± 0.1 µM
[7]
  RM: −0.4102
[8]
  miLogP: 3.96
[9]
  IC50: 100 ± 3.3 µM
[5]; 100 µM
  ILP % at 100 μM (inhibition of lipid peroxidation): 44% and 44.3 ± 1.1%

## COc1ccc(C=NNC(=O)c2sc3ccccc3c2Cl)cc1OC [III]
COX-1
  IC50: 2.9 µM
5-LOX
  IC50: 1.87 µM
Paw edema
  % paw edema reduction (in vivo): 89.8%
COX-2
  IC50: 0.68 µM

From PMC10746053, “Development of Novel Pyrrole Derivatives and Their Cinnamic Hybrids as Dual COX-2/LOX Inhibitors” (Molecules, 2023)
